# Data: patent publication US20250276008A1, “USE OF LITHIUM-CONTAINING COMPOUNDS IN TREATMENT OF TUMORS” (Institute of Basic Medical Sciences Chinese Academy of …, priority 2023, published 2025)
# Legend:
# [1] = system: CD8^+ T cells; experiment: Cytosolic Ca2+ / lysosomal Ca2+ release in CD8+ T cells; type: cell-based, mouse; settings: for increase in cytosolic Ca^2+ concentrations in CD8^+ T cells induced by LC: blocking calcium release from endoplasmic reticulum or mitochondria; for Ca^2+ release in lactic acid-treated CD8^+ T cells: increasing lysosomal pH value
# From the text: Next, we investigated the molecular mechanism by which LC activated TFEB in CD8^+ T cells. It has been reported (Nat Cell Biol. 2015 March;17(3):288-99) that in addition to being able to degrade exogenous or endogenous biomacromolecules, lysosomes, like endoplasmic reticulum and mitochondria, are also storage sites for Ca^2+ and can initiate the transduction of calcium-related downstream signals.
# (§1) In order to better track the flow of H^+, ^2D (deuterium)-acetic acid (DAC) or ^2D-sulfuric acid (D2SO4) was added to the culture medium of CD8^+ T cells. […] The K-loop of V-ATPase is located in the hydrophobic lipid bilayer and is essential for the pumping of cytosolic H^+ into the lysosomal lumen. Li^+ has been reported to bind to the K-loop of V-ATPase in Enterococcus hirde and induce deprotonation of the Glul39 residue (J. Am. Chem. Soc. 2011.133. 2860-2863).
# [2] = system: MCT1; experiment: Localization of MCT1 to mitochondria (Western blot of isolated T cell mitochondria); type: cell-based, mouse; settings: for expression / localization of MCT1 in mitochondria: Western blot of isolated T cell mitochondria
# From the text: The inventor further explored the molecular mechanism by which LC led to the shunting of lactic acid to mitochondria. Entry of lactic acid into mitochondria requires the localization of MCT1 to the inner mitochondrial membrane IMM (Redox Biol. 2020 August;35:101454). […] MCT1 is generally recognized as a secreted protein with an endoplasmic reticulum-targeting sequence that enters the endoplasmic reticulum and localizes to the plasma membrane. We hypothesized that LC could induce MCT1 variants with mitochondrial targeting sequences (MTSs). However, no MCT1 variant was found in LC-treated T cells by sequencing analysis, and only one transcript of MCT1 was found after alignment analysis on NCBI. A MTS was found at the N-terminus of MCT-1protein by protein sequence analysis, which was present downstream of the endoplasmic reticulum targeting sequence, forming a double-peak chimeric sequence. This double-peak sequence may direct MCT-1 to target the endoplasmic reticulum or mitochondria, and may be regulated by serine/threonine phosphorylation of PKA or PKC (Avadhani, N. G. 2011. FEBS J 278, 4218-4229).
# [3] = system: lysosomal V-ATPase; experiment: Lysosomal pH, Atp6v0c, H+ (deuterium) flow and Li+ accumulation in CD8+ T cells; type: cell-based, mouse
# Protocol: as §1
# [4] = system: CD8^+ T cells; experiment: Exogenous lactic acid on CD3/CD28-activated CD8+ T cells (flow cytometry, qPCR, ELISA, CTV); type: cell-based, C57BL/6J mouse; settings: exogenous lactic acid at different concentrations, dose-dependent
# From the text: In order to further explore the effect of lactic acid on CD8^+ T cells, we used C57BL/6J mouse spleen-derived CD8^+ T cells to be activated by CD3/CD28 magnetic beads and stimulated by exogenous lactic acid at different concentrations.
# [5] = system: CD8^+ T cells; experiment: Entry and subcellular distribution of lactate and hydrogen ions in CD8+ T cells (lysosensor, LC-MS/MS); type: cell-based, mouse
# Protocol: CD8^+ T cells were treated with exogenous hydrochloric acid (HCl) or sodium lactate (NaLa) as controls, and the entry of lactate and hydrogen ions into the cells was detected.
# When exogenous lactic acid enters the cell, excess hydrogen ions are further transported to acidic organelles, such as lysosomes, in order to maintain the stability of the cytoplasmic pH values.
# [6] = system: CD8^+ T cells; experiment: Lactyl-CoA (LC-MS/MS) and histone lactylation (Western blot, anti-pan-Kla) in CD8+ T cells; type: cell-based, mouse; settings: after treating CD8+ T cells with exogenous lactic acid
# From the text: We further investigated the effect of lactic acid distributed in the nucleus on the function of CD8^+ T cells. In 2019, Zhao […] team discovered a new type of histone epigenetic modification, lactylation modification (Kla), which can regulate the phenotype and function of macrophages (Nature. 2019 October: 574 (7779): 575-580). On this basis, we hypothesized that lactic acid entering the nucleus would lead to lactylation modification of histones, thereby regulating the function of CD8^+ T cells.
# [7] = system: V-ATPase; experiment: V0C expression, V-ATPase activity and lysosomal pH in lactic acid-treated CD8+ T cells; type: cell-based, mouse
# Protocol: In order to further elucidate the mechanism by which histone lactylation modification regulates T cell function, the downstream target genes regulated by histone lactylation modification were explored by using ChIP-Seq experiments, and the enrichment scores of genes corresponding to histone lactylation sites were calculated. […] ATP6V0C gene encodes the V0 subunit C protein in V-ATPase that plays a key role in pumping H^+, which is responsible for pumping cytosolic H^+ into the lysosomal lumen and thus maintaining the low pH value of lysosomes. […] Therefore, exogenous lactic acid results in lactylation of histones and thus up-regulating ATP6V0C expression and activity, thereby shunting cytosolic H^+ into lysosomes in response to cytosolic acid stress, but lysosomal acidification may inhibit the activity of CD8^+ T cells.
compound,measurement,setting,value
O=C1CSC(c2ccccc2Cl)c2cc(Cl)ccc2N1 (stereo not drawn) [CGP37157],increase in cytosolic Ca^2+ concentrations in CD8^+ T cells induced by LC,[1],did not affect
CCCCCCCCCCCCCC(=O)O[C@@H]1[C@@H](C)[C@@]2(O)[C@@H](C=C(CO)C[C@]3(O)C(=O)C(C)=C[C@@H]23)[C@@H]2C(C)(C)[C@]12OC(C)=O [PMA],expression / localization of MCT1 in mitochondria,[2],significantly increased
CN1CCN(c2nc(C3=C(c4c[nH]c5ccccc45)C(=O)NC3=O)c3ccccc3n2)CC1 [Sotrastaurin],localization of MCT1 to mitochondria induced by LC,"[2]; kinase inhibitors added, results not shown",almost completely blocked
CO/C1=C\C(C)=C\[C@@H](C)[C@@H](O)[C@@H](C)C/C(C)=C/C=C/[C@H](OC)[C@@H]([C@@H](C)[C@@H](O)[C@H](C)[C@@]2(O)C[C@@H](O)[C@H](C)[C@@H](C(C)C)O2)OC1=O [bafilomycin A1],Ca^2+ release,[1]; LC-treated CD8+ T cells with bafilomycin A1,reduced
same,Ca^2+ release in lactic acid-treated CD8^+ T cells,[1],promote
same,entry of Li^+ into lysosomes,[3]; LC-treated CD8+ T cells,blocked
CCN(CC)CCCC(C)Nc1ccnc2cc(Cl)ccc12 (stereo not drawn) [chloroquine],Ca^2+ release in lactic acid-treated CD8^+ T cells,[1],promote
CC(O)C(=O)O (stereo not drawn) [lactic acid],"activation of CD8^+ T cells (CD25 expression; gene and protein expression of IL-2, IFN-γ, TNF-α)",[4]; CD3/CD28 magnetic beads,significantly inhibited
same,apoptosis of CD8^+ T cells,[4],significantly promoted
same,proliferation of CD8^+ T cells (CTV proliferation assay),[4],significantly inhibited
same,lysosome acidification (lysosensor staining),[5],rapidly acidify lysosomes
same,entry of lactate and hydrogen ions into the cells,[5]; HCl or sodium lactate as controls,simultaneously transported into the cells
same,content of lactyl-CoA (LC-MS/MS),[6],significantly increased
same,"level of histone lactylation (Western blotting, anti-pan-Kla antibody)",[6],significantly increased
same,activity of V-ATPase,[7]; CD8+ T cells,significantly up-regulated
same,protein expression of V0C,[7]; CD8+ T cells,significantly up-regulated
same,lysosomal pH value,"[7]; exogenous lactic acid, decreasing from 5.4",4.4
same,expression / localization of MCT1 in mitochondria,[2],significantly reduced
same,expression of lysosome-related gene Atp6v0c,[3],significantly up-regulated
same,lactylation of the Atp6v0c gene (ChIP-seq),[3],high level of lactylation
Ryanodine,increase in cytosolic Ca^2+ concentrations in CD8^+ T cells induced by LC,[1],did not affect
